Here are results for 2 molecules from article PMC4194318, “Genetic and pharmacological evidence that G2019S LRRK2 confers a hyperkinetic phenotype, resistant to motor decline associated with aging” (Neurobiology of Disease, 2014).

The target in test [1] is T1, LRRK2 (leucine-rich repeat kinase 2) (Mus musculus, UniProt Q5S006, G2019S).
T1 construct: endogenous LRRK2 in striatum of G2019S knock-in mice
Kind of test: ex vivo Western blot of LRRK2 pSer935, […] min after […] mg/kg i.p. In kind it is cell-based. For orientation: Immunoblotting shows a protein as a band on a membrane.

Test [2] addresses T2, LRRK2 (leucine-rich repeat kinase 2) (Mus musculus, UniProt Q5S006).
T2 construct: endogenous LRRK2 in NIH3T3 cells
Put plainly: Western blot of LRRK2 pSer935 in NIH3T3 cells, […] min; also ex vivo mouse striatum and cortex. It is filed as cell-based.

The structures appear in SMILES notation.

T1 sequence (Q5S006 whole entry G2019S): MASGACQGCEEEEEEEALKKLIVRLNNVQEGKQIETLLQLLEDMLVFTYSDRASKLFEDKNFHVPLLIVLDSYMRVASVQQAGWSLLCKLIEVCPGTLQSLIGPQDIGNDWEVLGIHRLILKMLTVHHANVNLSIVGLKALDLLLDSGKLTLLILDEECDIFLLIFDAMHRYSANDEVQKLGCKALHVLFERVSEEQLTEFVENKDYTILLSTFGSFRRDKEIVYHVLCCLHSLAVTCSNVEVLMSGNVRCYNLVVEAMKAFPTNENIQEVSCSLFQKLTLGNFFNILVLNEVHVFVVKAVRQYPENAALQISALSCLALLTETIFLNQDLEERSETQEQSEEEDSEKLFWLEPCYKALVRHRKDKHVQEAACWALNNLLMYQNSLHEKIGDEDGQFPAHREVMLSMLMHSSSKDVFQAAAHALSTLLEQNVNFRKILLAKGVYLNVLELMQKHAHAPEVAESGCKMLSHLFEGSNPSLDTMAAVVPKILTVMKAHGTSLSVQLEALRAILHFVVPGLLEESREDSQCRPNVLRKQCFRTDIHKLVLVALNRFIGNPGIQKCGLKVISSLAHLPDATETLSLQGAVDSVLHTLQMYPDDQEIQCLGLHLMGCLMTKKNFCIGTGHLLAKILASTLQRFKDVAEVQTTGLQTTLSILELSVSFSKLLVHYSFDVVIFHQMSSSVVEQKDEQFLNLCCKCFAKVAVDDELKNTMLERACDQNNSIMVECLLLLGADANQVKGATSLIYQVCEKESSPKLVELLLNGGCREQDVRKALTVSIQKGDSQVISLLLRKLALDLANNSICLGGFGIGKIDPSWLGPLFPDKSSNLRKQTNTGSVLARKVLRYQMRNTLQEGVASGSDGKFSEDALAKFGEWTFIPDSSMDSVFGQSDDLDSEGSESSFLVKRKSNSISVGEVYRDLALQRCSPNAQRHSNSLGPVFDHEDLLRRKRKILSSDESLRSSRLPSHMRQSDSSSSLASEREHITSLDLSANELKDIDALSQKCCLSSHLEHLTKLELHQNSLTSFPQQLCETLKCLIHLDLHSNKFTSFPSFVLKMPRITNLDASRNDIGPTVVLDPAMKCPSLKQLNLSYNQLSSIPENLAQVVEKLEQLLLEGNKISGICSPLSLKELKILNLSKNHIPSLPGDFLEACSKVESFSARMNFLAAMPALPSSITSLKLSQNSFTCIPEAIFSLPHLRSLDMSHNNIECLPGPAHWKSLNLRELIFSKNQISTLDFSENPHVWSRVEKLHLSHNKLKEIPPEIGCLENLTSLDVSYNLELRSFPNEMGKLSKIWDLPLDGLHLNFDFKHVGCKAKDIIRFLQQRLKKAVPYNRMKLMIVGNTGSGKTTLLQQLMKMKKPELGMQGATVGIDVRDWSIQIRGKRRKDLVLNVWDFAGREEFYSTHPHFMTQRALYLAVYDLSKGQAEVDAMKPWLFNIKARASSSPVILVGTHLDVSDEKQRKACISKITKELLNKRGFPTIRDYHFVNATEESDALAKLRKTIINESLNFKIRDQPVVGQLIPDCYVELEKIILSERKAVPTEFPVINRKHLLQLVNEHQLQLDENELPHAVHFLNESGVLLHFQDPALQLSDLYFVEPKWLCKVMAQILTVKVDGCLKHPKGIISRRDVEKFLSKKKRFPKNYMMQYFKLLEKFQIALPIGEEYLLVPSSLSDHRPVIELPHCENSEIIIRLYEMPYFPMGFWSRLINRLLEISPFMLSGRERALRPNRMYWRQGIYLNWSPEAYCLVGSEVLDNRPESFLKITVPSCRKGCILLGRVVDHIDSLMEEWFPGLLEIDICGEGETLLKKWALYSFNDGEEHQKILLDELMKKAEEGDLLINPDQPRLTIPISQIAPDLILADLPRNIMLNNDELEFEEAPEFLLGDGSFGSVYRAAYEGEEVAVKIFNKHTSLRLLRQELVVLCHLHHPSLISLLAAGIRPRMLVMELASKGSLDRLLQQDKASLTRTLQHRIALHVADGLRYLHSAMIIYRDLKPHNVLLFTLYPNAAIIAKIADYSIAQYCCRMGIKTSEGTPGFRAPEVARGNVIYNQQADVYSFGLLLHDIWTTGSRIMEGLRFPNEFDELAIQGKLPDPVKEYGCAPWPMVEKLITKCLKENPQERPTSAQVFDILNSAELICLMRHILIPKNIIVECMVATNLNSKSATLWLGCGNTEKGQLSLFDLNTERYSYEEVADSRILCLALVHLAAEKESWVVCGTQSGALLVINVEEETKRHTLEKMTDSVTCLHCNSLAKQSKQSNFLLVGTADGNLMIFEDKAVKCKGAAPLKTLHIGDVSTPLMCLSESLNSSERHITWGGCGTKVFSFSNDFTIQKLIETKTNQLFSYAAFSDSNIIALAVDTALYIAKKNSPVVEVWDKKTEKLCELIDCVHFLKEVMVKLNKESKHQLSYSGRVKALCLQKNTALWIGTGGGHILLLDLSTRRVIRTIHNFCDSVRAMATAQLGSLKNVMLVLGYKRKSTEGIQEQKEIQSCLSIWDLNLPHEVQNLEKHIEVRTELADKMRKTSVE
T2 sequence (Q5S006 whole entry): as the sequence (Q5S006 whole entry G2019S) above, with S2019G counted along it

With `Cc1cncc2cccc(S(=O)(=O)N3CCCNC[C@@H]3C)c12` [H-1152, (S)-(+)-2-methyl-1-[(4-methyl-5-isoquinoline)sulfonyl]-homopiperazine], the “ex vivo Western blot of LRRK2 pSer935, 20 min after 1 mg/kg i.p.” value in test [1] is listed as “H-1152 attenuated endogenous LRRK2 phosphorylation at Ser935 in striatum but not cerebral cortex of G2019S knock-in (G2019S KI) mice”.

What is called IC50 is the concentration that gives 50% inhibition. In test [2], `CC(=O)N1CCc2[nH]c(/C=C3\C(=O)Nc4ccc(OC(C)C)cc43)cc2C1` [Nov-LRRK2-11] registered an IC50 of 0.38 nM.
